Reference: ChEMBL document CHEMBL5291721, “A preclinical secondary pharmacology resource illuminates target-adverse drug reaction associations of marketed drugs” (Nat Commun, 2023)

Legend:
Mu-type opioid receptor = Mu-type opioid receptor (Homo sapiens, UniProt P35372)
Adenosine receptor A3 = biological target: T1, Adenosine receptor A3 (Homo sapiens, UniProt P0DMS8)
T1 sequence (P0DMS8 whole entry): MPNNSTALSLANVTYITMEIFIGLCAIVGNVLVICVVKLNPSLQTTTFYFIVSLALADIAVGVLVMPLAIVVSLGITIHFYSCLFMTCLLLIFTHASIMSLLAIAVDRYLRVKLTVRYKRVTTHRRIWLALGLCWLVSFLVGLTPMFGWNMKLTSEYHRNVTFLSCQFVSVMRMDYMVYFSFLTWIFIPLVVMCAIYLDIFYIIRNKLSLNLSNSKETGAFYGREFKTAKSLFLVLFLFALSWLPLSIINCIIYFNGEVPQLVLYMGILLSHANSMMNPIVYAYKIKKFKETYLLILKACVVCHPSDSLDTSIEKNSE

Thromboxane A2 receptor = biological target: T2, Thromboxane A2 receptor (Homo sapiens, UniProt P21731); assay type: functional, cell-based
T2 sequence (P21731 whole entry): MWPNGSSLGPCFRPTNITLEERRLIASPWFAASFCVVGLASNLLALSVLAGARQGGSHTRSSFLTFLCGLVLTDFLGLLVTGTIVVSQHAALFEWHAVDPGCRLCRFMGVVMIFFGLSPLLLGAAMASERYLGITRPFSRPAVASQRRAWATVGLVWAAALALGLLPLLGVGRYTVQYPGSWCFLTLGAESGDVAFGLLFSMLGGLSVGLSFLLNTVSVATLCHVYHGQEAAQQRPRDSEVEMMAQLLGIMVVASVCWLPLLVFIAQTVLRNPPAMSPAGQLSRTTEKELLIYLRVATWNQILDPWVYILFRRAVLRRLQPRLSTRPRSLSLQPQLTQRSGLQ

[1] = biological target: 3',5'-cyclic-AMP phosphodiesterase 4A (Homo sapiens, UniProt P27815); assay type: functional
3',5'-cyclic-AMP phosphodiesterase 4A, sequence (P27815 whole entry): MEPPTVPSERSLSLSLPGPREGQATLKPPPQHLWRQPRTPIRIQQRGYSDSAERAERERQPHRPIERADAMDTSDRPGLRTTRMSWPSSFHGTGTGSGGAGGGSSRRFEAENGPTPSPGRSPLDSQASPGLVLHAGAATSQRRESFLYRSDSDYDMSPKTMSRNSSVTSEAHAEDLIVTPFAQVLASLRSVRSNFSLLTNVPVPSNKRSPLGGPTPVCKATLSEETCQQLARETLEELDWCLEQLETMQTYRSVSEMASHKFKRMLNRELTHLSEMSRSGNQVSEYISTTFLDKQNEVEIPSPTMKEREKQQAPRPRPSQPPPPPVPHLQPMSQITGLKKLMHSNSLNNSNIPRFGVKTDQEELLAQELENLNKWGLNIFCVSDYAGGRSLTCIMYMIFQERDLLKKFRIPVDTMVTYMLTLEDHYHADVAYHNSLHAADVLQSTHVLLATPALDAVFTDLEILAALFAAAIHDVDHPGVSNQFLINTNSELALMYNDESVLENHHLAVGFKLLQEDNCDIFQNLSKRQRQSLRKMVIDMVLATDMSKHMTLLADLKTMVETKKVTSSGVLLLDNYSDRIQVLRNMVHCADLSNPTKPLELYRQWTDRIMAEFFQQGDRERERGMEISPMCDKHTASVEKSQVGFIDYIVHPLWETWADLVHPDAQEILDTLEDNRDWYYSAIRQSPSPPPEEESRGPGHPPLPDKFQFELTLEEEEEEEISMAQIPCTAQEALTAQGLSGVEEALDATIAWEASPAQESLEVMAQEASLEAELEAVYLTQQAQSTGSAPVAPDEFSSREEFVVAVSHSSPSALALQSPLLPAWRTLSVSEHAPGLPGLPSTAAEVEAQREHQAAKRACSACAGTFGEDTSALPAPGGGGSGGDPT

[2] = biological target: Sodium-dependent dopamine transporter (Homo sapiens, UniProt Q01959)
Sodium-dependent dopamine transporter, sequence (Q01959 whole entry): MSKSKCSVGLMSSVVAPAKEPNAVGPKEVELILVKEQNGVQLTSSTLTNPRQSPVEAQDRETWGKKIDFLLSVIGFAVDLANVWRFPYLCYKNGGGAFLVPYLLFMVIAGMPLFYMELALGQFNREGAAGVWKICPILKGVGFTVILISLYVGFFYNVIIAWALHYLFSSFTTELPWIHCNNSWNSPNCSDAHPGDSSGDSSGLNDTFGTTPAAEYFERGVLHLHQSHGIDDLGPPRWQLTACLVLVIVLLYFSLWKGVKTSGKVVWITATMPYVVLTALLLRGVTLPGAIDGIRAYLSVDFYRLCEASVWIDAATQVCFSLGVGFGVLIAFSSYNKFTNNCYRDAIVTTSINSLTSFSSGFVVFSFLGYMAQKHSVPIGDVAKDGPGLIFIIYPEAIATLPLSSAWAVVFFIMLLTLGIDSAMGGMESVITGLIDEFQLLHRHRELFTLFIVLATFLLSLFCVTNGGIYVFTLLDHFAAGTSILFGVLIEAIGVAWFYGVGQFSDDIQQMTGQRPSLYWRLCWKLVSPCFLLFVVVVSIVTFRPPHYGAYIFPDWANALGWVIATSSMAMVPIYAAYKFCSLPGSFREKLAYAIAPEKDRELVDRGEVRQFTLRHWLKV

[3] = biological target: T3, Muscarinic acetylcholine receptor M1 (Homo sapiens, UniProt P11229); assay type: functional, cell-based
T3 sequence (P11229 whole entry): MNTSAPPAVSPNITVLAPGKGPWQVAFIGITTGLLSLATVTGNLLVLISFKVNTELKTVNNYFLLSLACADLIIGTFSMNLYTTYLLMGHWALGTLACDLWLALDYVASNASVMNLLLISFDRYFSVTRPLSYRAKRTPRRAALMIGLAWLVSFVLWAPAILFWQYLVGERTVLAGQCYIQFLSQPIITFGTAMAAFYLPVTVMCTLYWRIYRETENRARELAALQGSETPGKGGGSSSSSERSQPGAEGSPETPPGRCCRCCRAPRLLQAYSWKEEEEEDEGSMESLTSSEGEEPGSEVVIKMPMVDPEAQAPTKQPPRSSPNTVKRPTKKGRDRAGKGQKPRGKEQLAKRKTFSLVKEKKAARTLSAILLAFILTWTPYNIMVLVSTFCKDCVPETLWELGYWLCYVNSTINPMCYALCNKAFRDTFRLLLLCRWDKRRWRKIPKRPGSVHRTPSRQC

[4] = biological target: T4, Muscarinic acetylcholine receptor M2 (Homo sapiens, UniProt P08172)
T4 sequence (P08172 whole entry): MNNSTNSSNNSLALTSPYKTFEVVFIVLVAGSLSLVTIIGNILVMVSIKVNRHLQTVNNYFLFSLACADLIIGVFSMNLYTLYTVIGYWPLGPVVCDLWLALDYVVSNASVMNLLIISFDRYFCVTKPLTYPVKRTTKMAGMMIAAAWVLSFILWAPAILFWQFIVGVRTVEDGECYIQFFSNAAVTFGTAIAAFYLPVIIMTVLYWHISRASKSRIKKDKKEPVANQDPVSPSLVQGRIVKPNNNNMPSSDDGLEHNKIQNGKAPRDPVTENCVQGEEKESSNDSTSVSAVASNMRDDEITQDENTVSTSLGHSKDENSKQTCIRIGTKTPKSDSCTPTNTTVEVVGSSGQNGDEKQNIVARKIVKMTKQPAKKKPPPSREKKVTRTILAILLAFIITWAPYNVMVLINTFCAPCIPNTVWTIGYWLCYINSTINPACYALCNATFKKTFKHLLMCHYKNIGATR

[5] = biological target: T5, Alpha-1A adrenergic receptor (Homo sapiens, UniProt P35348); assay type: functional, cell-based
T5 sequence (P35348 whole entry): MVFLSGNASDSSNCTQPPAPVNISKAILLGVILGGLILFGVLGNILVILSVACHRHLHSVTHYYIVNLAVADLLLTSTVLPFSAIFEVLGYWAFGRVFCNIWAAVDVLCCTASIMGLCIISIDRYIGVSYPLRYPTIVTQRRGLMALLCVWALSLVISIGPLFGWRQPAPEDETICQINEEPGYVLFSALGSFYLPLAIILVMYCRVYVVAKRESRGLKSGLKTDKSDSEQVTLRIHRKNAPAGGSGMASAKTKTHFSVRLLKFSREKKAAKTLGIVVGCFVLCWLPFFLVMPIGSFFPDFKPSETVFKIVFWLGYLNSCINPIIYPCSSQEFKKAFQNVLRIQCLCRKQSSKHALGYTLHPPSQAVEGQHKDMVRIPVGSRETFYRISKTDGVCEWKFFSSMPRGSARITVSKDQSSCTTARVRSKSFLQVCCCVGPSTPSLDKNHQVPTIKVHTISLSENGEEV

[6] = biological target: Sodium-dependent noradrenaline transporter (Homo sapiens, UniProt P23975)
Sodium-dependent noradrenaline transporter, sequence (P23975 whole entry): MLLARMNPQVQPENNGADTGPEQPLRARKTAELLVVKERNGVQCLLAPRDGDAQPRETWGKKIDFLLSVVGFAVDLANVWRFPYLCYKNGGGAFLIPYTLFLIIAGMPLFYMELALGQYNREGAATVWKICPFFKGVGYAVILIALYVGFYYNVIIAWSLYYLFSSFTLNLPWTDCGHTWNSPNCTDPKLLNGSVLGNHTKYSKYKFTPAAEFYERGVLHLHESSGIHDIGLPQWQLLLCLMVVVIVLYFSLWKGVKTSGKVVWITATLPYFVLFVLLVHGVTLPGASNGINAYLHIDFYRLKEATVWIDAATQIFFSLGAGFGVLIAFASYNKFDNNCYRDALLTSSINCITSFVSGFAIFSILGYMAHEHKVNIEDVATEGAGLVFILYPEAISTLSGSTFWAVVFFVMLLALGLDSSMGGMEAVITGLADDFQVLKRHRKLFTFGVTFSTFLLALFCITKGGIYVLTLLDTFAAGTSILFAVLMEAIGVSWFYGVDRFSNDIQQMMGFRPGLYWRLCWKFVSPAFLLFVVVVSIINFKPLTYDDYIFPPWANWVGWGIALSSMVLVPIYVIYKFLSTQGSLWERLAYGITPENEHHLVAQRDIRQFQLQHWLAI
Further: assay procedure not described here.

Mu-type opioid receptor, sequence (P35372 whole entry): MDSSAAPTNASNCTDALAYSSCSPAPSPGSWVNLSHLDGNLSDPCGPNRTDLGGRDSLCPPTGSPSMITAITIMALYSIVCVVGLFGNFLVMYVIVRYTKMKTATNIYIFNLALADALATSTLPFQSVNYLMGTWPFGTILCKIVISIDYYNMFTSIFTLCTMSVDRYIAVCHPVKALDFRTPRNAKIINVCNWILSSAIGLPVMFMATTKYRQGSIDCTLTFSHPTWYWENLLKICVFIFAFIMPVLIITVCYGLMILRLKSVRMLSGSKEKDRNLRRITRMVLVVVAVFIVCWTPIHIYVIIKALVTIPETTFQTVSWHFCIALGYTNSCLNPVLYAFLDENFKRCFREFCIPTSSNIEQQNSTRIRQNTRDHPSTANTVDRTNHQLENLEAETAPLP

| Compound | AC50 (Mu-type opioid receptor) [µM] | AC50 (Adenosine receptor A3) [µM] | AC50 (Thromboxane A2 receptor) [µM] | AC50 [1] [µM] | AC50 [2] [µM] | AC50 [3] [µM] | AC50 [4] [µM] | AC50 [5] [µM] | AC50 [6] [µM] |
| --- | --- | --- | --- | --- | --- | --- | --- | --- | --- |
| CCOC(=O)[C@H](CCc1ccccc1)N[C@@H](C)C(=O)N1CC2(C[C@H]1C(=O)O)SCCS2 | > 30 | > 30 | > 30 | > 30 | > 30 | > 30 | > 30 | > 30 | > 30 |
| C[S+](CC[C@H](N)C(=O)[O-])C[C@H]1O[C@@H](n2cnc3c(N)ncnc32)[C@H](O)[C@@H]1O (some centres undefined) [ADEMETIONINE] | > 30 | 0.174 | > 30 | > 30 | > 30 | > 30 | > 30 | > 30 | > 30 |
| Nc1ccncc1N [AMIFAMPRIDINE] | > 30 | > 30 | > 30 | > 30 | > 30 | > 30 | > 30 | > 30 | > 30 |
| NC(=O)C[C@H](N)C(=O)O [ASPARAGINE] | > 30 | > 30 | > 30 | > 30 | > 30 | > 30 | > 30 | > 30 | > 30 |
| CCCC1O[C@@H]2C[C@H]3[C@@H]4CCC5=CC(=O)C=C[C@]5(C)[C@H]4[C@@H](O)C[C@]3(C)[C@]2(C(=O)CO)O1 (some centres undefined) [BUDESONIDE] | > 30 | > 30 | > 30 | > 30 | > 30 | – | > 30 | > 30 | > 30 |
| CN1CCN(C2=Nc3ccccc3Sc3ccc(Cl)cc32)CC1 [CLOTHIAPINE] | 1.1 | – | > 10 | > 30 | 3.62 | > 10 | 0.52 | 0.01 | 0.76 |
| CC[C@H]1CN2CCc3cc(OC)c(OC)cc3[C@@H]2C[C@@H]1C[C@H]1NCCc2cc(OC)c(OC)cc21 [EMETINE] | 5.99 | – | > 30 | > 30 | > 30 | – | > 30 | – | > 30 |
| NC1=NCC2c3ccccc3Cc3ccccc3N12 (centres undefined) [EPINASTINE] | 17.4 | > 30 | > 30 | > 30 | > 30 | > 30 | > 30 | 2.53 | 4.58 |
| CC(=O)Oc1ccc2c(c1)CC[C@@H]1[C@@H]2CC[C@]2(C)[C@@H](O)CC[C@@H]12 [ESTRADIOL ACETATE] | 9.04 | 10.5 | 13.1 | > 30 | 8.09 | > 30 | > 30 | 15 | > 30 |
| O=c1[nH]c(=O)n([C@H]2C[C@H](O)[C@@H](CO)O2)cc1I [IDOXURIDINE] | > 30 | > 30 | > 30 | > 30 | > 30 | – | > 30 | > 30 | > 30 |
| Cc1cc(C)c(NC(=O)CN(CC(=O)O)CC(=O)O)c(C)c1Br [MEBROFENIN] | > 30 | – | > 30 | > 30 | > 30 | – | > 30 | – | > 30 |
| Cc1cc(OP(=O)(O)O)c2ccccc2c1OP(=O)(O)O [MENADIOL SODIUM DIPHOSPHATE] | > 30 | > 30 | > 30 | > 30 | > 30 | > 30 | > 30 | > 30 | > 30 |
| Cc1ccccc1OCC(O)CO (centres undefined) [MEPHENESIN] | > 30 | > 30 | > 30 | > 30 | > 30 | > 30 | > 30 | > 30 | > 30 |
| COc1ccccc1N1CCN(CC(O)COc2cccc3ccccc23)CC1 (centres undefined) [NAFTOPIDIL] | 0.9 | – | > 3 | > 30 | 4.46 | – | > 30 | – | 6.01 |
| O=C(O)c1ccccc1C(=O)Nc1ccc(S(=O)(=O)Nc2nccs2)cc1 [PHTHALYLSULFATHIAZOLE] | > 30 | > 30 | > 30 | > 30 | > 30 | > 30 | > 30 | > 30 | > 30 |
| COc1cc([C@@H]2c3cc4c(cc3[C@H](O)[C@H]3COC(=O)[C@H]23)OCO4)cc(OC)c1OC [PODOFILOX] | > 30 | > 30 | > 30 | > 10 | > 30 | – | > 30 | 6.56 | > 30 |
| Nc1ccc2cc3ccc(N)cc3nc2c1 [PROFLAVINE] | 3.64 | 10.2 | – | > 30 | 5.16 | > 0.3 | 2.61 | – | 2.69 |
| CCN1CCCC1CNC(=O)c1cc(S(N)(=O)=O)ccc1OC (centres undefined) [SULPIRIDE] | > 30 | > 30 | > 30 | > 30 | > 30 | – | > 30 | > 30 | > 30 |
| O=c1[nH]c(=O)n(C2CCCO2)cc1F (centres undefined) [TEGAFUR] | > 30 | > 30 | > 30 | > 30 | > 30 | – | > 30 | > 30 | > 30 |
| CCCCCNC(=N)N/N=C/c1c[nH]c2ccc(OC)cc12 [TEGASEROD] | 2.32 | – | > 3 | > 30 | 1.85 | > 3 | 6.59 | 1.16 | 0.26 |
| COc1cc2c3cc1Oc1cc(ccc1O)C[C@@H]1c4c(cc(OC)c(O)c4Oc4ccc(cc4)C[C@@H]3N(C)CC2)CC[N+]1(C)C [TUBOCURARINE] | 24.1 | > 30 | > 30 | > 30 | > 30 | – | > 30 | > 30 | > 30 |
| OC[C@@H](O)[C@H](O)[C@@H](O)CO [XYLITOL] | > 30 | > 30 | > 30 | > 30 | > 30 | > 30 | > 30 | > 30 | > 30 |
